In the NIST ThermoML archive (doi:10.1016/j.jct.2006.03.021):

Experiment: molar heat capacity at constant pressure
Details: 101.33 kPa, Crystal, Vacuum adiabatic calorimetry

O.OC[C@H]1O[C@@H](O[C@H]2O[C@H](CO)[C@@H](O)[C@H](O)[C@H]2O)[C@H](O)[C@@H](O)[C@@H]1O [α,β-trehalose monohydrate]
Details	molar heat capacity at constant pressure [J/K/mol]
12.15 K	6.701
12.87 K	6.35
13.89 K	7.774
15 K	9.56
15.06 K	9.688
16.13 K	11.54
17.15 K	13.35
18.14 K	15.21
19.1 K	17.06
20 K	18.85
20.02 K	18.86
20.99 K	20.81
21.98 K	22.87
22.97 K	24.93
23.99 K	27.06
25.09 K	29.37
26.28 K	31.89
27.52 K	34.52
28.79 K	37.22
30 K	39.76
30.14 K	40.07
31.48 K	42.93
32.83 K	45.73
34.23 K	48.62
35.64 K	51.52
37.04 K	54.43
38.44 K	57.19
39.85 K	59.97
40 K	60.3
41.25 K	62.71
42.67 K	65.48
44.14 K	68.28
45.66 K	71.1
47.22 K	74
48.83 K	76.91
50 K	78.98
50.46 K	79.86
52.14 K	82.8
53.84 K	85.77
55.55 K	88.73
56.47 K	90.18
58.33 K	93.36
60 K	96.14
60.17 K	96.48
62 K	99.53
63.81 K	102.56
65.62 K	105.58
67.43 K	108.53
69.25 K	111.51
70 K	112.73
71.08 K	114.46
72.92 K	117.44
74.76 K	120.43
76.6 K	123.41
78.42 K	126.41
80 K	128.94
80.24 K	129.3
82.05 K	132.24
83.88 K	135.15
85.74 K	138.11
87.62 K	141.12
89.52 K	144.11
90 K	144.87
91.42 K	147.15
93.33 K	150.17
95.28 K	153.24
97.28 K	156.4
99.29 K	159.5
100 K	160.59
101.26 K	162.58
103.21 K	165.61
105.12 K	168.61
107.01 K	171.53
108.87 K	174.41
110 K	176.15
110.71 K	177.24
112.52 K	180.05
114.31 K	182.82
116.08 K	185.5
117.84 K	188.16
119.57 K	190.8
120 K	191.54
121.29 K	193.41
122.99 K	196.08
124.68 K	198.72
126.4 K	201.25
128.14 K	203.9
129.89 K	206.59
130 K	206.76
131.7 K	209.4
133.54 K	212.03
135.4 K	214.95
137.31 K	217.83
139.29 K	220.87
140 K	221.8
141.32 K	223.89
143.36 K	226.95
145.42 K	229.87
147.49 K	232.93
149.55 K	235.92
150 K	236.64
151.6 K	238.94
153.65 K	242.05
155.7 K	244.94
157.76 K	248.08
159.82 K	250.99
160 K	251.27
161.88 K	253.84
163.94 K	256.98
166.01 K	260.01
168.09 K	262.9
170 K	265.74
170.15 K	265.9
172.2 K	268.93
174.23 K	271.83
176.25 K	274.9
178.26 K	277.71
180 K	280.12
180.26 K	280.35
182.24 K	283.42
184.22 K	286.13
186.18 K	288.99
188.13 K	291.83
190 K	294.51
190.07 K	294.5
191.99 K	297.33
193.92 K	300.26
195.86 K	302.94
197.82 K	305.58
199.78 K	308.6
200 K	308.94
201.75 K	311.51
203.73 K	314.35
205.72 K	317.15
207.72 K	320.03
209.73 K	323.23
210 K	323.42
211.76 K	326.07
213.79 K	328.83
215.82 K	331.74
217.85 K	335.14
219.89 K	337.71
220 K	337.95
221.94 K	340.79
223.97 K	343.7
226.01 K	346.53
228.06 K	349.68
230 K	352.54
230.09 K	352.7
232.12 K	355.67
234.16 K	358.66
236.2 K	361.46
238.24 K	364.57
240 K	367.19
240.3 K	367.64
242.38 K	370.71
244.44 K	373.64
246.49 K	376.59
248.54 K	379.8
250 K	381.89
250.58 K	382.78
252.6 K	385.78
254.62 K	388.6
256.63 K	391.62
258.63 K	394.61
260 K	396.69
260.63 K	397.5
262.91 K	400.41
264.59 K	403.48
266.56 K	406.35
268.52 K	409.35
270 K	411.55
270.48 K	412.29
272.46 K	415.5
274.46 K	418.09
276.47 K	421.07
278.49 K	424.17
280 K	426.56
280.52 K	427.38
282.54 K	430.46
284.56 K	433.56
286.58 K	436.49
288.58 K	439.62
290 K	441.71
290.63 K	443
292.65 K	445.73
294.68 K	448.7
296.7 K	451.81
298.15 K	454.11
298.72 K	454.95
300 K	456.92
300.74 K	457.97
